Source: paper PMC10689823, “Discovery of a Drug-like, Natural Product-Inspired DCAF11 Ligand Chemotype” (Nature Communications, 2023)

Target: BRD4S-TagBFP reporter (Homo sapiens, UniProt O60885)
Experiment: FACS-based CRISPR/Cas9 BRD4 protein stability screen
Conditions: Mageck_Gene level
Description: The virus containing supernatant was cleared of cellular debris by filtration through a 0.45-µm PES filter and used to transduce KBM7 BRD4-BFP reporter cells harboring a doxycycline inducible Cas9 allele at a multiplicity of infection (MOI) of 0.05 and 1,000-fold library representation. Library-transduced cells were selected with G418 (1 mg ml^−1, Gibco) for 14 days, expanded and Cas9 expression was induced with DOX (0.4 µg ml^−1, PanReac AppliChem).
Cells were washed with and stored in FACS buffer (PBS containing 5% FBS and 1 mM EDTA) at 4 °C overnight. The next day, cells were strained trough a 35 µm nylon mesh and sorted on a BD FACSAria™ Fusion (BD Biosciences) using a 85 µm nozzle. Aggregates, dead (ZombieNIR positive), Cas9-negative (GFP) and sgRNA library-negative (Thy1.1-APC) cells were excluded, and the remaining cells were sorted based on their BRD4-BFP and mCherry levels into BRD4^HIGH (10% of cells), BRD4^MID (30%) and BRD4^LOW (10%) fractions. For each sample, cells corresponding to at least 2,000-fold library representation were sorted per replicate.
Next-generation sequencing (NGS) libraries of sorted cell fractions were prepared as previously described[25]. In brief, genomic DNA was isolated by cell lysis (10 mM Tris-HCl, 150 mM NaCl, 10 mM EDTA, 0.1% SDS), proteinase K treatment (New England Biolabs) and DNAse-free RNAse digest (Thermo Fisher Scientific), followed by two rounds of phenol extraction and 2-propanol precipitation. Isolated genomic DNA was subjected to several freeze–thaw cycles before nested polymerase chain reaction (PCR) amplification of the sgRNA cassette.
Barcoded NGS libraries for each sorted population were generated using a two-step PCR protocol using AmpliTaq Gold (Invitrogen). The resulting PCR products were purified using Mag-Bind® TotalPure NGS beads (Omega Bio-tek) and amplified in a second PCR introducing the standard Illumina adapters. The final Illumina libraries were bead-purified, pooled and sequenced on a HiSeq 3500 platform (Illumina).
Screen analysis was performed as previously described[25]. Briefly, sequencing reads were quantified using the crispr-process-nf Nextflow workflow, available at https://github.com/ZuberLab/crispr-process-nf/tree/566f6d46bbcc2a3f49f51bbc96b9820f408ec4a3. For statistical analysis, we used the crispr-mageck-nf Nextflow workflow, available at https://github.com/ZuberLab/crispr-mageck-nf/tree/c75a90f670698bfa78bfd8be786d6e5d6d4fc455. To calculate gene-level enrichment, the sorted populations (BRD4^HIGH or BRD4^LOW) were compared to the BRD4^MID populations in MAGeCK (0.5.9)[46], using median normalized read counts.

## Cc1sc2c(c1C)C(c1ccc(Cl)cc1)=N[C@@H](CC(=O)NCCOCCOCCOCCOCCNC(=O)COc1c(Br)cc(/C=C3\C(=O)Nc4ccc(Br)cc43)cc1Br)c1nnc(C)n1-2 [Compound 9]
Gene DCAF1
  High_lfc: -0.04
  High_logP: 0.22
  Low_lfc: 0.71
  Low_logP: 1.93
Gene DCAF4
  High_lfc: -0.33
  High_logP: 0.01
  Low_lfc: -0.08
  Low_logP: 0.63
Gene DCAF5
  High_lfc: -0.12
  High_logP: 0.13
  Low_lfc: 0.4
  Low_logP: 1.39
Gene DCAF6
  High_lfc: 0.1
  High_logP: 0.11
  Low_lfc: 0.51
  Low_logP: 1.55
Gene DCAF7
  High_lfc: -0.09
  High_logP: 0.04
  Low_lfc: 0.11
  Low_logP: 0.24
Gene DCAF8
  High_lfc: -0.19
  High_logP: 0.14
  Low_lfc: 0.08
  Low_logP: 0.18
Gene DCAF12
  High_lfc: 0.07
  High_logP: 0.29
  Low_lfc: -0.16
  Low_logP: 0.06
Gene DCAF13
  High_lfc: -0.33
  High_logP: 0.07
  Low_lfc: -0.3
  Low_logP: 0.33
Gene DCAF15
  High_lfc: -0.01
  High_logP: 0.12
  Low_lfc: 0.32
  Low_logP: 0.83
Gene DCAF16
  High_lfc: 0.71
  High_logP: 2.61
  Low_lfc: -0.66
  Low_logP: 0.04
Gene DCAF17
  High_lfc: 0.07
  High_logP: 0.17
  Low_lfc: -0.16
  Low_logP: 0.07
Gene DCUN1D1
  High_lfc: 0.27
  High_logP: 1.62
  Low_lfc: -0.11
  Low_logP: 0.82
Gene DCUN1D2
  High_lfc: -0.24
  High_logP: 0
  Low_lfc: 0.46
  Low_logP: 1.57
Gene DCUN1D3
  High_lfc: 0.07
  High_logP: 0.22
  Low_lfc: 0.29
  Low_logP: 0.82
Gene DCUN1D4
  High_lfc: -0.09
  High_logP: 0.04
  Low_lfc: -0.2
  Low_logP: 0.05
Gene DCUN1D5
  High_lfc: 0.69
  High_logP: 2.79
  Low_lfc: -0.49
  Low_logP: 0
Gene DDA1
  High_lfc: 0.43
  High_logP: 1.02
  Low_lfc: -0.23
  Low_logP: 0.16
Gene DDB1
  High_lfc: 2.03
  Low_lfc: 0.4
  Low_logP: 0.83
Gene DDB2
  High_lfc: 0.02
  High_logP: 0.06
  Low_lfc: 0.07
  Low_logP: 0.53
Gene DET1
  High_lfc: -0.36
  High_logP: 0.06
  Low_lfc: -0.27
  Low_logP: 0.06
Gene DHX15
  High_lfc: 0.66
  Low_lfc: 0.13
  Low_logP: 0.31
Gene DTL
  High_lfc: -0.25
  High_logP: 0.1
  Low_lfc: 0.46
  Low_logP: 1.87
Gene ECT2L
  High_lfc: -0.03
  High_logP: 0.31
  Low_lfc: -0.31
  Low_logP: 0.2
Gene EED
  High_lfc: 0.01
  High_logP: 0.06
  Low_lfc: -0.55
  Low_logP: 0.01
Gene EIF4A1
  High_lfc: -0.26
  High_logP: 0.15
  Low_lfc: -0.34
  Low_logP: 0.04
Gene EIF4A3
  High_lfc: -0.3
  High_logP: 0.1
  Low_lfc: 0.62
  Low_logP: 1.82
Gene ELOA2
  High_lfc: 0.02
  High_logP: 0.19
  Low_lfc: -0.02
  Low_logP: 0.17
Gene ELOA3
  High_lfc: -0.12
  High_logP: 0.33
  Low_lfc: -0.41
  Low_logP: 0.06
Gene ELOA3D
  High_lfc: -0.34
  High_logP: 0.11
  Low_lfc: -0.14
  Low_logP: 0.69
Gene ELOA
  High_lfc: -0.54
  High_logP: 0
  Low_lfc: 0.05
  Low_logP: 0.65
Gene ELOB
  High_lfc: -0.05
  High_logP: 0.33
  Low_lfc: 0.22
  Low_logP: 0.4
Gene ELOC
  High_lfc: -0.21
  High_logP: 0.17
  Low_lfc: 0.63
  Low_logP: 1.29
Gene ENC1
  High_lfc: -0.27
  High_logP: 0.19
  Low_lfc: -0.31
  Low_logP: 0.09
Gene EPHA4
  High_lfc: 0.01
  High_logP: 0.19
  Low_lfc: -0.17
  Low_logP: 0.06
Gene ERCC8
  High_lfc: -0.19
  High_logP: 0.27
  Low_lfc: -0.63
  Low_logP: 0.01
Gene ESCO1
  High_lfc: 0.1
  High_logP: 0.14
  Low_lfc: -0.14
  Low_logP: 0.11
Gene FAM9A
  High_lfc: -0.28
  High_logP: 0.03
  Low_lfc: -0.03
  Low_logP: 0.66
Gene FBXL2
  High_lfc: -0.01
  High_logP: 0.32
  Low_lfc: -0.67
  Low_logP: 0.02
Gene FBXL3
  High_lfc: 0.05
  High_logP: 0.1
  Low_lfc: 0.28
  Low_logP: 0.58
Gene FBXL4
  High_lfc: -0.08
  High_logP: 0.06
  Low_lfc: 0.06
  Low_logP: 0.49
Gene FBXL5
  High_lfc: 0.03
  High_logP: 0.04
  Low_lfc: 0.05
  Low_logP: 0.32
Gene FBXL6
  High_lfc: 0.08
  High_logP: 0.54
  Low_lfc: 0.07
  Low_logP: 0.24
Gene FBXL7
  High_lfc: -0.35
  High_logP: 0.03
  Low_lfc: -0.35
  Low_logP: 0.01
Gene FBXL8
  High_lfc: -0.11
  High_logP: 0.39
  Low_lfc: 0.2
  Low_logP: 0.54
Gene FBXL12
  High_lfc: 0.01
  High_logP: 0.22
  Low_lfc: 0.06
  Low_logP: 0.38
Gene FBXL13
  High_lfc: -0.18
  High_logP: 0.02
  Low_lfc: -0.03
  Low_logP: 0.46
Gene FBXL14
  High_lfc: -0.12
  High_logP: 0.22
  Low_lfc: 0.15
  Low_logP: 0.61
Gene FBXL15
  High_lfc: 0.41
  High_logP: 0.56
  Low_lfc: 0.18
  Low_logP: 0.28
Gene FBXL16
  High_lfc: 0.12
  High_logP: 0.12
  Low_lfc: -0.11
  Low_logP: 0.07
Gene FBXL17
  High_lfc: 0.03
  High_logP: 0.74
  Low_lfc: -0.02
  Low_logP: 0.44
Gene FBXL18
  High_lfc: 0.28
  High_logP: 1.09
